{"source": "patent US20260216166A1", "about": "“COMPOUND FOR TREATMENT OF ERECTILE DYSFUNCTION” (Initiator Pharma A/S, priority 2023, published 2026)", "tested_on": "anaesthetized rats", "assay": "Intracavernous pressure / spontaneous erections in anaesthetized rats", "type": "in vivo, rat", "procedure": "For in vivo erectile physiology studies, rats were anaesthetized with pentobarbital sodium (Sygehus Apoteket, Aarhus, Denmark; 50 mg/kg) given intraperitoneally. During the experiment, the rats breathed spontaneously; the body temperature was monitored continuously and was maintained at 37° C. With a midline incision in the perineum, the base of the penis, enclosed by striated muscles, was exposed. The ischiocavernous muscle covering the crus corpus cavernosum was divided on one side, and entrance to the underlying tunica albuginea was given. A 25-gauge needle attached to a heparinized (100 IE ml-1) polyethylene catheter was inserted into the crus corpus cavernosum to measure intracavernous pressure (ICP). A heparinized polyethylene catheter (PE 50) was introduced into the carotid artery to measure mean arterial pressure (MAP). Continuous direct measurements of MAP and ICP were performed with transducers (Disposable BP Transducer, ADInstruments, UK), and registered and analysed on a computerized data acquisition system (PowerLab, ADInstruments).\nA stabilizing period of 20-30 min was allowed before registration of basal ICP and MAP. Through a lower abdominal incision, the cavernous nerve was isolated at the lateral aspect of the prostate, and electrical stimulation was performed with a slender bipolar platinum electrode, which was connected to a S48 stimulator (Grass Instrument Co., Boston, MA, U.S.A.). To measure the maximum amplitude of the erectile response, a first stimulation of the cavernous nerve (square wave pulses of 6 Volts, 10 Hz, 1 ms pulse duration for 30 s) was performed.\nIP2015, sildenafil, clozapine or vehicle were administered by injection in the jugular vein in volumes of maximum 200 μl. […] The observation period of spontaneous erection after injection of IP2015 was 30 min. Clozapine (1 mg/kg) or sildenafil (1 mg/kg) were administered 30 or 10 min prior to 1 mg/kg IP2015 injection, respectively. One group was injected with vehicle alone.\nTo investigate the involvement of proximal neuronal pathways in the effect of IP2015, mechanical denervation was performed. For mechanical denervation the isolated cavernous nerve was cut distal to the major pelvic ganglion. Absence of erectile response to electrical stimulation verified the efficacy of mechanical denervation.", "note": "Entries after “also recorded” stand apart in the source; their conditions may differ."}
{"smiles": "COc1cc2ccc(OC3CC4CCC(C3)N4)cc2oc1=O", "note": "(stereo not drawn) [IP2015, 7-[(8-azabicyclo[3.2.1]octan-3-yl)oxy]-3-methoxy-chromen-2-one]", "values": [{"measurement": "intracavernosal pressure", "setting": "anaesthetized rats, 0.1, 1, and 10 mg/kg in the jugular vein, in contrast to vehicle", "result": "induced transient increases in intracavernosal pressure corresponding to erections; also recorded: dose-dependent increases in intracavernous pressure"}, {"measurement": "responses to electrical field stimulation (EFS) of the cavernous nerve", "setting": "anaesthetized rats, IP2015 administration", "result": "without changing the responses to EFS"}, {"measurement": "magnitude of erectile responses, ICP increases as percentage of MAP", "setting": "anaesthetized rats, compared to vehicle", "result": "significantly increased compared to vehicle"}, {"measurement": "frequency, duration, and magnitude of spontaneous erections", "setting": "anaesthetized rats, i.v. 0.1, 1, 10 mg/kg", "result": "dose-dependently increased the number and the duration of spontaneous erections"}, {"measurement": "IP2015-induced erectile responses after cutting the cavernosal nerve", "setting": "anaesthetized rats, mechanical denervation", "result": "inhibited"}, {"measurement": "penile pressure", "setting": "direct intracavernosal injection", "result": "increased penile pressure"}]}
